Reference: US8420621B2, “Methods of using gamma cyclodextrin to control blood glucose and insulin secretion” (Abbott Laboratories, priority 2004, dated 2013)

Assays:
[1] = tested on: healthy adult subjects; experiment: Clinical study: postprandial plasma glucose response; format: in vivo, human
Source text: Thirty-two healthy adult subjects received two treatments in a double-masked, randomized, crossover design. The two treatments consisted of 50 g challenges of either maltodextrin or gamma-cyclodextrin. Blood samples were collected over a three-hour period, and breath samples collected over an eight-hour period following consumption of each carbohydrate. […] This study utilized a randomized, double-masked, crossover design, with a 4-14 day washout period between treatments. Before completing the two treatment visits, each subject completed one pre-study gastrointestinal tolerance test visit. Randomization was carried out by sealed envelopes stating which pre-study treatment was to be received, as well as in which sequence the two treatment visits were to be carried out. These envelopes were prepared from randomization schedules generated at Ross Products Division of Abbott Laboratories, Two product coordinators assigned an envelope from the top of the pile to each subject in the order that they passed all screening criteria and were given subject numbers. Besides carrying out randomization, the product coordinators were responsible for study product inventory and serving the appropriate product to subjects at each visit so that other study staff could not become aware of the study product identity. […] At each of the two treatment visits, subjects received 16 fl oz of a study product containing either 50 g of maltodextrin or 50 g of gamma-cyclodextrin. All beverages were served cold in styrofoam cups with lids and straws, labeled only with the subject number, subject initials and visit number, with the intention of hiding any slight differences in appearance that could be visible to study staff or subjects. On two separate treatment visits, subjects received, in random order, one of the two study beverages. Three days prior to each treatment visit, subjects recorded their food and beverage intake in a food diary. Subjects were required to consume ≧150 g of carbohydrate each day for three days prior to each treatment. Subjects were not to engage in vigorous exercise for 24 hours before each treatment. Subjects consumed an evening low residue Ensure® meal and completed a 10-16 hour overnight fast as detailed previously. […] A breath sample was collected for measurement of breath hydrogen. […] Plasma glucose was measured using an AccuChek Advantage Blood Glucose Monitoring System® (Roche Diagnostics, Indianapolis, Ind.). […] Positive incremental area under the plasma glucose response curve for two hours after each treatment will be calculated using the method of Wolever et al, The glycemic index: methodology and clinical implications, Amer. […]

[2] = tested on: healthy adult subjects; experiment: Clinical study: breath hydrogen test for carbohydrate malabsorption; format: in vivo, human; settings: 3 hours after 50 g oral; p=0.01
Procedure: Upon completion of baseline samples, the subject proceeded to the study site and consumed 16 fl oz of one of the two test beverages in no more than 10 minutes. After consumption of the study beverage, the subject resumed fasting. Time 0 was designated as the time at which the subject began drinking the study beverage. Additional venous blood samples and capillary plasma glucose finger sticks were collected at 15, 30, 45, 60, 90, 120, 150, and 180 […] minutes after the start of the study beverage. Additional breath samples were collected at 1, 2, 3, 4, 5, 6, 7, and 8 (±10 minutes) hours postprandially. Subjects were limited to the consumption of 8 fl oz of water during this three hour blood collection period. Approximately 10 mL of normal saline was injected into the vein after each blood draw in order to keep the line open and to replace the fluid lost from the blood collected.
After the 180-minute blood and breath samples were collected, the subject was allowed to leave the study site and collect the remaining breath samples (hours 4-8) on their own. During the remainder of the breath collection period, the subject was instructed to refrain from sleep and exercise. Subjects were to remain fasting with the exception of an optional one or two 8 fl oz cans of Ensure® Plus. […]
Breath hydrogen was analyzed to determine if the carbohydrate in the study product had been malabsorbed. […]

[3] = tested on: healthy adult subjects; settings: single 8 g doses, Koutsou et al. 1999; cited from earlier work

With `OC[C@H]1O[C@@H]2O[C@H]3[C@H](O)[C@@H](O)[C@@H](O[C@H]4[C@H](O)[C@@H](O)[C@@H](O[C@H]5[C@H](O)[C@@H](O)[C@@H](O[C@H]6[C@H](O)[C@@H](O)[C@@H](O[C@H]7[C@H](O)[C@@H](O)[C@@H](O[C@H]8[C@H](O)[C@@H](O)[C@@H](O[C@H]9[C@H](O)[C@@H](O)[C@@H](O[C@H]1[C@H](O)[C@H]2O)O[C@@H]9CO)O[C@@H]8CO)O[C@@H]7CO)O[C@@H]6CO)O[C@@H]5CO)O[C@@H]4CO)O[C@@H]3CO` [Gamma-Cyclodextrin, Gamma-cyclodextrin] the “Plasma glucose area under the curve (AUC), effect versus maltodextrin” value ([1]; 50 g oral challenge) was “significantly reduced”, the “Adjusted peak glucose, difference between treatments” value ([1]; 50 g oral, crossover analysis p<0.0001) was “significant difference” and the “Positive incremental 120 min plasma glucose AUC” value ([1]; 50 g oral, mean±SEM, n=31) was 133.2±16.5. For the same compound, the “Relative glycemic response compared with maltodextrin” value ([1]; baseline to 120 min, 50 g oral) was 55%, the “Breath hydrogen compared to maltodextrin” value [2] was “significantly higher” and the Gastrointestinal tolerance [3] was “good tolerance”.
